Source: US20110045086A1, “Steroid Nebuliser Formulation” (BREATH LTD, priority 2008, published 2011)

Legend:
Format in all cases: physicochemical
[1] = dry Sympatec PSD analysis (particle size distribution); settings: for Particle Size, cumulative distribution Q3 X10 / Particle Size, cumulative distribution Q3 X50 / Particle Size, cumulative distribution Q3 X90: dry Sympatec PSD, after isolation / pre-storage sample
Text: Particle size or particle diameter as used herein can be suitably determined by laser diffraction based methods, for example as described in ISO Standard 13320-1. Laser diffraction particle sizing apparatus such as the Malvern Mastersizer 2000™ can be used.

[2] = storage at 20% relative humidity for 48 hours (DVS, DSC, PSD, SEM); settings: for Particle Size, cumulative distribution Q3 X10 / Particle Size, cumulative distribution Q3 X50 / Particle Size, cumulative distribution Q3 X90: dry Sympatec PSD, post-storage sample; for DSC trace of the stored sample / variation of particle size after storage (PSD): post-storage; for weight change during storage (DVS mass plot): storage at 20% RH for 48 hours
Method: In order to evaluate the effect of humidity on prolonged storage processed BDP hydrate was subjected to 20% relative humidity (RH) for 48 hours.
The sample recovered after storage was analysed by DSC, TGA, PSD and SEM.
In order to evaluate the effect of humidity on prolonged storage anhydrous BDP was subjected to 20% relative humidity (RH) for 48 hours. The pre-storage sample was characterized by TGA, DSC, PSD and SEM analysis.
The sample recovered after storage was analyzed by DSC, PSD and SEM.

[3] = microscope imaging / SEM of particles; settings: for largest particles or clusters observed (microscope imaging / SEM): after supercritical CO2 isolation; for particle size in suspension prior to isolation (microscope imaging): partially agglomerated particles, before supercritical CO2 isolation
[4] = after supercritical CO2 isolation

SMILES | Particle Size, cumulative distribution Q3 X10 [1] [μ] | Particle Size, cumulative distribution Q3 X50 [1] [μ] | Particle Size, cumulative distribution Q3 X90 [1] [μ] | stability on prolonged storage ([2]; 20% RH for 48 hours, compared with anhydrous BDP) | Particle Size, cumulative distribution Q3 X10 ([2]; 20% RH for 48 hours) [μ] | Particle Size, cumulative distribution Q3 X50 ([2]; 20% RH for 48 hours) [μ] | Particle Size, cumulative distribution Q3 X90 ([2]; 20% RH for 48 hours) [μ] | DSC trace of the stored sample ([2]; 20% RH for 48 hours) | variation of particle size after storage (PSD) ([2]; 20% RH for 48 hours) | time to steady state in DVS mass plot ([2]; storage at 20% RH) | weight change during storage (DVS mass plot) [2] | largest particles or clusters observed (microscope imaging / SEM) [3] | particle size in suspension prior to isolation (microscope imaging) [3] | largest particles by dry Sympatec PSD analysis ([1]; after supercritical CO2 isolation, bimodal distribution) | size of larger clusters or agglomerates by dry Sympatec PSD analysis [1, 4] [μm] | size of most particles by dry Sympatec PSD analysis [1, 4] [μm]
CCC(=O)OCC(=O)[C@@]1(OC(=O)CC)[C@@H](C)C[C@H]2[C@@H]3CCC4=CC(=O)C=C[C@]4(C)[C@@]3(Cl)[C@@H](O)C[C@@]21C.O [BDP hydrate] | 0.51 | 1.35 | 3.17 | higher stability on prolonged storage than anhydrous BDP | 0.51 | 1.37 | 2.95 | no variation in the thermal behavior | no significant variation of particle size | about 1500 minutes | considerable weight loss due to partial dehydration | – | – | – | – | –
CCC(=O)OCC(=O)[C@@]1(OC(=O)CC)[C@@H](C)C[C@H]2[C@@H]3CCC4=CC(=O)C=C[C@]4(C)[C@@]3(Cl)[C@@H](O)C[C@@]21C [Comparative Example 1] | 1.26 | 12.58 | 61.27 | – | – | – | – | – | – | – | – | up to 100 μm | up to 5 μm | up to 150 μm | – | –
CCC(=O)OCC(=O)[C@@]1(OC(=O)CC)[C@@H](C)C[C@H]2[C@@H]3CCC4=CC(=O)C=C[C@]4(C)[C@@]3(Cl)[C@@H](O)C[C@@]21C [Comparative Example 2] | 0.84 | 3.58 | 8.76 | – | – | – | – | – | – | – | – | up to 10 μm | up to 5 μm | – | > 20 | ~4
CCC(=O)OCC(=O)[C@@]1(OC(=O)CC)[C@@H](C)C[C@H]2[C@@H]3CCC4=CC(=O)C=C[C@]4(C)[C@@]3(Cl)[C@@H](O)C[C@@]21C [anhydrous BDP, anhydrous beclomethasone diproprionate] | 0.43 | 1.10 | 2.24 | – | 0.42 | 1.07 | 2.10 | formation of BDP hydrate | no significant variation of particle size | – | considerable weight changes | – | – | – | – | –
